Source: patent publication US7671181B2, “Polynucleotides encoding coccidian parasite casein kinase I, a chemotherapeutic target for antiprotozoal agents” (Merck Sharp & Dohme Corp., priority 2004, dated 2010)

Columns and labels:
EtCKIα = EtCKIα (Eimeria tenella, UniProt Q6QNL9); test: Casein kinase assay, partially purified native EtCKIα; format: biochemical; conditions: native enzyme
Description: Protein kinase assays—Casein kinase activity was assayed essentially as described (Donald, R. G. K. et al., 2002, supra) using 96-well phosphocellulose plates (MAPH-NOB, Millipore; Billerica, Mass.) to capture ^33P-phosphorylated peptide or casein substrates. Kinase reactions were carried out in 40 μl volumes containing 25 mM Hepes, pH 7.4, 10 mM MgCl2, 20 mM β-glycerophosphate, 1 mM DTT, 250 μM substrate, 1 mg/mL BSA, 2 μM ATP, and 0.01 μM [γ-^33P]ATP (Perkin-Elmer, 3000 Ci/mmol). The reactions were initiated by the addition of enzyme and incubated at room temperature for 60 min. Casein (5% solution), partially dephosphorylated α-casein and β-casein were obtained from Sigma.
A variety of commercially available peptide substrates were evaluated. From Calbiochem (San Diego, Calif.): CKI substrate (RRKDLHDDEEDEAMSITA; SEQ ID NO:13); CKII substrate (RRADDSDDDDD; SEQ ID NO:14); Syntide-2 substrate (PLARTLSVAGLPGKK; SEQ ID NO:15); CaM kinase II substrate (281-291) (MHKNETVECLK; SEQ ID NO:16). From Promega: CKI substrate (DDDEESITRR; SEQ ID NO:17) and kemptide (LRRASLG; SEQ ID NO:18). From New England Biolabs (Beverly, Mass.): CKI phosphopeptide substrate (KRRRALS(p)VASLPGL; SEQ ID NO:19), and CKII substrate (RRREEETEEE; SEQ ID NO:20). PKG assays were performed with kemptide as substrate and 10 μM cGMP. CDPK was assayed with Syntide-2 substrate and in the presence of 100 μM CaCl2.
Partial purification of native EtCKIα—The inability to stably express recombinant EtCKIα in T. gondii provided impetus to purify native enzyme from E. tenella parasites (slide 5). A lysate was prepared from 2×10^10 unsporulated oocysts using previously published procedures (Gurnett, A. M. et al., 2002, supra). The first two steps of the purification scheme used were essentially scaled-up from the method described for the purification of native TgCKIα. The lysate was subjected to preparative HiLoad Q anion-exchange chromatography and fractions eluted with a NaCl gradient (0-1 M NaCl). […]

T. gondii = test: Parasite growth inhibition, modified [3H]-uracil uptake assay in infected HFF cell monolayers; format: cell-based, Toxoplasma gondii; conditions: Toxoplasma gondii; uracil uptake assay, infected HFF cell monolayers; read-out: IC50
Description: Host cells and parasite cultures—RH strain or RH ΔHXGPRT strain tachyzoites of T. gondii were maintained by serial passage in confluent monolayers of human foreskin fibroblasts (“HFF”) as described (Roos, D. S. et al., 1994, Methods Cell Biol. 45:27-63). A modified [^3H]-uracil uptake assay (Pfefferkorn, E. R. and Pfefferkorn, L. C., 1977, J. Protozool. 24:449-453) adapted for use in 96-well scintillation plates (Cytostar-T, Amersham; Piscataway, N.J.) was used to measure parasite growth inhibition. Each well, previously seeded with HFF cells, was inoculated with T. gondii tachyzoites (2×10^4) in 200 μl of growth media containing 2 μCi [5,6]-^3H-uracil (Perkin-Elmer NEN; Boston, Mass.) and serially diluted compound. Following incubation at 37° C. for 36-48 hours, tritium-incorporation into host cell monolayers was directly counted in a microplate scintillation counter (MicroBeta, PerkinElmer-Wallac).
The only other CDK inhibitor with sub-μM activity against T. gondii was indirubin-3′-monoxime, which gave an IC50 value of 500 nM.

EtCKIα, sequence (Q6QNL9 whole entry): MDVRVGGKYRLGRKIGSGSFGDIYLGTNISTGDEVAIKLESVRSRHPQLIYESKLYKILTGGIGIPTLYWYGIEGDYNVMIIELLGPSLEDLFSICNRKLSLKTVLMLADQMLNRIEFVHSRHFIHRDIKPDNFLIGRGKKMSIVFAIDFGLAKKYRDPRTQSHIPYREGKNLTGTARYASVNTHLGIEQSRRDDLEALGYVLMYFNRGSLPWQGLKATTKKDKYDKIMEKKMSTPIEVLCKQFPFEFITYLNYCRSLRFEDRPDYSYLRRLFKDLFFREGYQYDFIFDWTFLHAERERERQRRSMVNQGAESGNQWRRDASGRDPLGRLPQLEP

SMILES: CC(C)[C@H](CO)Nc1nc(Nc2ccc(C(=O)O)c(Cl)c2)c2ncn(C(C)C)c2n1 [purvalanol B]
- activity against / sensitivity of EtCKIα (EtCKIα): good activity
- IC50 (T. gondii): 260 nM
